Assay [1] deals with 5-hydroxytryptamine receptor 6 (Homo sapiens, UniProt P50406). The class given is cell membranes, HeLa, Membrane.
Assay [2] concerns the target Protein phosphatase 3 catalytic subunit alpha (Homo sapiens, UniProt Q08209). Further details: species or system Escherichia coli.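 Further: inhibition of calcineurin (PP2B) enzyme activity, measured with DiFMUP as the substrate; in other assays of this panel Not Active means under 50% inhibition at 10 µM.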
Assay [3] deals with T1, Alpha-1A adrenergic receptor (Rattus norvegicus, UniProt P43140).
T1 sequence (P43140 whole entry): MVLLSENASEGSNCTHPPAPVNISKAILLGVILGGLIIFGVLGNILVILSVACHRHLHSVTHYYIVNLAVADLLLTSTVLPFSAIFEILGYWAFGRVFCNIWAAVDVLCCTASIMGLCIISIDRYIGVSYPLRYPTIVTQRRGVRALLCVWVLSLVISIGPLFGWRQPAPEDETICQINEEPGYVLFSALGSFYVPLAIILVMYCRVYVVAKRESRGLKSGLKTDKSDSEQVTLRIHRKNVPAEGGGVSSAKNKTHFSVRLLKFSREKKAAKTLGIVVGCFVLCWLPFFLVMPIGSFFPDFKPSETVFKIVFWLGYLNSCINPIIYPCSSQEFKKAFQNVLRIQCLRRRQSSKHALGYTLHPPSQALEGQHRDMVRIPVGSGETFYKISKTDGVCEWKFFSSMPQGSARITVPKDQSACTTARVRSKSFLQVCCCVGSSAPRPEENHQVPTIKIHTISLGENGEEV
Kind of assay: DRUGMATRIX: Alpha-1A adrenergic receptor radioligand binding (ligand: prazosin). The class given is cell membranes, Wistar, Submaxillary gland, Membrane. Particulars: Not Active = under 50% inhibition at 10 µM.

A short description of assay [4]: DRUGMATRIX: Glutamate, Kainate radioligand binding (ligand: [3H] Kainic acid). The class given is cell membranes, Rattus norvegicus, Wistar, Brain, Membrane. As to conditions: Not Active = under 50% inhibition at 10 µM.
The target of assay [5] is T2, Polyunsaturated fatty acid lipoxygenase ALOX15 (Oryctolagus cuniculus, UniProt P12530).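 Further: inhibition of 15-lipoxygenase enzyme activity measured with linoleic acid as the substrate; in other assays of this panel Not Active means under 50% inhibition at 10 µM.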
T2 sequence (P12530 whole entry): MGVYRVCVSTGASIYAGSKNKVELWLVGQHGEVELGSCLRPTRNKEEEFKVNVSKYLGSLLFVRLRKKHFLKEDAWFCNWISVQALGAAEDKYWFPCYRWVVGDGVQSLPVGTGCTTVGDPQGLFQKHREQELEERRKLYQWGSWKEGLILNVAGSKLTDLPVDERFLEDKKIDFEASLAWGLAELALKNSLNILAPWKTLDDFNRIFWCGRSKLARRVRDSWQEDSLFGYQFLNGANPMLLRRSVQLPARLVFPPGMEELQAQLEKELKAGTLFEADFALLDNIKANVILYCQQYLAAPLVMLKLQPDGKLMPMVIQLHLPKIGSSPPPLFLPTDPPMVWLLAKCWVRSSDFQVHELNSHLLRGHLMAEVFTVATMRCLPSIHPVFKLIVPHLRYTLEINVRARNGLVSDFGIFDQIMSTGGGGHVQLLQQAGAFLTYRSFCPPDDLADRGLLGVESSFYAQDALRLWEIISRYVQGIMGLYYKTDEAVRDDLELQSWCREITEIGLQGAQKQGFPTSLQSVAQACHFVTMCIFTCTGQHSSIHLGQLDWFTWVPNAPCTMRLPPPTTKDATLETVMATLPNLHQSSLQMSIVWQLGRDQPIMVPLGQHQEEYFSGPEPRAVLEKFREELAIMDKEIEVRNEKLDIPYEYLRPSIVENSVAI
Put plainly: biochemical. The class given is tissue-based, Reticulocytes. As to conditions: reticulocytes.

Another assay concerns the target Nitric oxide synthase 1 (Rattus norvegicus, UniProt P29476). The class given is tissue-based, Cerebellum. Further: in other assays of this panel Not Active means under 50% inhibition at 10 µM.

Sequence of Nitric oxide synthase 1 (P29476 whole entry): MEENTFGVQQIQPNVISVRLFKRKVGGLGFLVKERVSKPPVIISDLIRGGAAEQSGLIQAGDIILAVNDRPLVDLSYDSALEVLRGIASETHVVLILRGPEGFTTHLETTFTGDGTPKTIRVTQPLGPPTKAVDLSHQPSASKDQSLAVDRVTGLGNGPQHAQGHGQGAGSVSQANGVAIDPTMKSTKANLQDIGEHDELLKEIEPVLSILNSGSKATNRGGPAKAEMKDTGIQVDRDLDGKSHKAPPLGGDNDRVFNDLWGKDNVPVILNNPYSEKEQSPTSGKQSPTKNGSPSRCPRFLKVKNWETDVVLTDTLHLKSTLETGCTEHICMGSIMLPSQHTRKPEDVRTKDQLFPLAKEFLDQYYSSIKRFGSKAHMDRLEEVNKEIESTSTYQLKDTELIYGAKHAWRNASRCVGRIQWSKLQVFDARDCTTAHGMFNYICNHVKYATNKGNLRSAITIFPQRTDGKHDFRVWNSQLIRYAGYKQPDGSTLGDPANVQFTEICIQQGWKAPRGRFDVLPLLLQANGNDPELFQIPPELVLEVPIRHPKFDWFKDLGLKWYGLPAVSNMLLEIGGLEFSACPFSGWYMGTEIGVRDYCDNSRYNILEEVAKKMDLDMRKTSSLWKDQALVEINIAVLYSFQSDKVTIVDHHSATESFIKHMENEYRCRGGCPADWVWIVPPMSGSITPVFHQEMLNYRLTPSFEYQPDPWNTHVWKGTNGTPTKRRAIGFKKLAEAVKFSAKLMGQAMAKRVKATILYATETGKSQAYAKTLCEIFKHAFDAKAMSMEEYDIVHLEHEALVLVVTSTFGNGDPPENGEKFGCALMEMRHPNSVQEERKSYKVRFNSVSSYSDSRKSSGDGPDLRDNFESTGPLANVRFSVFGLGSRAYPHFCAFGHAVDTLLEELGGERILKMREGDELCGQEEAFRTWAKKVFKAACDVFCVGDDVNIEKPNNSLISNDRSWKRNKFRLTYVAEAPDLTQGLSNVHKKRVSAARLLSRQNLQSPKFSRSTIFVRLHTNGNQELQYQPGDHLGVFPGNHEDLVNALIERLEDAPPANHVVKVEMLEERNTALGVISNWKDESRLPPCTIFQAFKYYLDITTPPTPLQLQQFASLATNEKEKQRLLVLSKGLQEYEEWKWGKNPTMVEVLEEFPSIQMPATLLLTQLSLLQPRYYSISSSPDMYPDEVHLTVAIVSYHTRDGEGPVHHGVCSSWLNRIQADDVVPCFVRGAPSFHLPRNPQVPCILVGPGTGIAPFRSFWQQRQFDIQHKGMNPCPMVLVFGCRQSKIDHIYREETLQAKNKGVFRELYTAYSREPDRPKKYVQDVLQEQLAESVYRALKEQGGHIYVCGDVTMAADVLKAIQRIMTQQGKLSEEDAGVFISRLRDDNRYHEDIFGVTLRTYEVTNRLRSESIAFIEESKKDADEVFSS
Sequence of 5-hydroxytryptamine receptor 6 (P50406 whole entry): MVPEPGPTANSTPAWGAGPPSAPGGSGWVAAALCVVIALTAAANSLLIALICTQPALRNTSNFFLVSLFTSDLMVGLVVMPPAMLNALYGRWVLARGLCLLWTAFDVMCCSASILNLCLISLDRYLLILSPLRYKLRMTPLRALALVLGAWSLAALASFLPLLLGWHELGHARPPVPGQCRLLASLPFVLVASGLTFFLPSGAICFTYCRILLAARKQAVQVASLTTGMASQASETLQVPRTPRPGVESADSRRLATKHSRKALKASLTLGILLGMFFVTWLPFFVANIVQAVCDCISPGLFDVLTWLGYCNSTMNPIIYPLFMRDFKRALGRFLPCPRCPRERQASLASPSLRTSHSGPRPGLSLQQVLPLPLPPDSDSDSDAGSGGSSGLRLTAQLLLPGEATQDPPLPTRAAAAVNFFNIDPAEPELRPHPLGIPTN

Take `Nn1nnc2ccccc21`: the IC50 result (in assay [1] (hela); in assay [2]; in assay [3]; in assay [4]; in assay [5]; against Nitric oxide synthase 1) was “Not Active” in each case. The Ki (commonly the equilibrium dissociation constant of an inhibitor or competing ligand from its target) in assay [4] was “Not Active”.

As to `CC[C@]1(O)CC[C@H]2[C@@H]3CCC4=CCCC[C@@H]4[C@H]3CC[C@@]21C`, the IC50 result (in assay [1] (hela); in assay [2]; in assay [3]; in assay [4]; in assay [5]; against Nitric oxide synthase 1) was “Not Active” each time. Besides, the Ki entry in assay [4] is “Not Active”.

For `N[C@@H](Cc1ccc(F)cc1)C(=O)O`, the IC50 entry (in assay [1] (hela); in assay [2]; in assay [3]; in assay [4]; in assay [5]; against Nitric oxide synthase 1) was “Not Active” in each case. Further, the Ki entry in assay [4] was “Not Active”.

As for `CCOC(=O)[C@H](CCc1ccccc1)N[C@@H](C)C(=O)N1Cc2ccccc2C[C@H]1C(=O)O`, the IC50 entry (in assay [1] (hela); in assay [2]; in assay [3]; in assay [4]; in assay [5]; on Nitric oxide synthase 1) was “Not Active” in each case. Further, the Ki result in assay [4] is “Not Active”.

Regarding `O=C(c1ccccc1Cl)N1CCC(Cc2ccccc2)CC1`, the IC50 entry (in assay [1] (hela); in assay [2]; in assay [3]; in assay [4]; in assay [5]; on Nitric oxide synthase 1) was “Not Active” in each case. In addition, the Ki entry in assay [4] is “Not Active”.

For the compound `CCOC(=O)[C@H](CCc1ccccc1)N[C@@H](C)C(=O)N1CCC[C@H]1C(=O)O`, the IC50 entry (in assay [1] (hela); in assay [2]; in assay [3]; in assay [4]; in assay [5]; on Nitric oxide synthase 1) was “Not Active” throughout. The Ki entry in assay [4] is “Not Active”.

As to `Clc1cc2c(cc1Cl)Oc1cc(Cl)c(Cl)cc1O2` [2,3,7,8-TETRACHLORODIBENZO-P-DIOXIN], the IC50 result (in assay [1] (hela); in assay [2]; in assay [3]; in assay [4]; in assay [5]; against Nitric oxide synthase 1) was “Not Active” each time. In addition, the Ki result in assay [4] is “Not Active”.

As for `C=C1/C(=C\C=C2/CCC[C@]3(C)[C@@H]([C@H](C)CCCC(C)C)CC[C@@H]23)C[C@@H](O)C[C@@H]1O` [ALFACALCIDOL], the IC50 result (in assay [1] (hela); in assay [2]; in assay [3]; in assay [4]; in assay [5]; against Nitric oxide synthase 1) was “Not Active” each time. Further, the Ki entry in assay [4] was “Not Active”.

As for `CCCCCC[C@H]1C(=O)O[C@H](C)[C@H](NC(=O)c2cccc(NC=O)c2O)C(=O)O[C@@H](C)[C@@H]1OC(=O)CC(C)C` [ANTIMYCIN A], the IC50 result (in assay [1] (hela); in assay [2]; in assay [3]; in assay [4]; in assay [5]; at Nitric oxide synthase 1) was “Not Active” each time. In addition, the Ki result in assay [4] is “Not Active”.

`C[C@@H]1CC[C@H]2[C@@H](C)C(=O)O[C@@H]3O[C@@]4(C)CC[C@@H]1[C@]32OO4` [ARTEMISININ]: the IC50 entry (in assay [1] (hela); in assay [2]; in assay [3]; in assay [4]; in assay [5]; against Nitric oxide synthase 1) was “Not Active” each time. Also, in assay [4], the Ki result is given as “Not Active”.

On to `CO[C@H]1[C@@H](O)[C@H](N)[C@@H](O[C@H]2O[C@H]([C@H](C)N)CC[C@H]2N)[C@H](O)[C@@H]1N(C)C(=O)CN` [ASTROMICIN], for which the IC50 entry (in assay [1] (hela); in assay [2]; in assay [3]; in assay [4]; in assay [5]; on Nitric oxide synthase 1) was “Not Active” throughout. For the same compound, in assay [4], the Ki result was “Not Active”.

In the case of `[N-]=[N+]=CC(=O)OC[C@H](N)C(=O)O` [AZASERINE], the IC50 entry (in assay [1] (hela); in assay [2]; in assay [3]; in assay [4]; in assay [5]; on Nitric oxide synthase 1) was “Not Active” each time. Further, the Ki result in assay [4] is reported as “Not Active”.

Turning to `CC[C@H]1OC(=O)[C@H](C)[C@@H](O[C@H]2C[C@@](C)(OC)[C@@H](O)[C@H](C)O2)[C@H](C)[C@@H](O[C@@H]2O[C@H](C)C[C@H](N(C)C)[C@H]2O)[C@](C)(O)C[C@@H](C)CN(C)[C@H](C)[C@@H](O)[C@]1(C)O` [AZITHROMYCIN], the IC50 entry (in assay [1] (hela); in assay [2]; in assay [3]; in assay [4]; in assay [5]; against Nitric oxide synthase 1) was “Not Active” each time. Moreover, the Ki entry in assay [4] was “Not Active”.

`CC(C)(C)c1ccc(S(=O)(=O)/C=C/C#N)cc1` [BAY-11-7085]: the half-maximal inhibitory concentration (IC50) entry (in assay [1] (hela); in assay [2]; in assay [3]; in assay [4]; in assay [5]; against Nitric oxide synthase 1) was “Not Active” throughout. In addition, the Ki entry in assay [4] was “Not Active”.

For the compound `CCc1oc2ccccc2c1C(=O)c1cc(Br)c(O)c(Br)c1` [BENZBROMARONE], the IC50 result (in assay [1] (hela); in assay [2]; in assay [3]; in assay [4]; on Nitric oxide synthase 1) was “Not Active” in each case. For the same compound, the Ki entry in assay [4] and in assay [5] was “Not Active” throughout.

As for `O=c1cc(-c2ccccc2)oc2ccc3ccccc3c12` [BETA-NAPHTHOFLAVONE], the IC50 result (in assay [1] (hela); in assay [2]; in assay [3]; in assay [4]; in assay [5]; on Nitric oxide synthase 1) was “Not Active” each time. Besides, the Ki entry in assay [4] was “Not Active”.

For `CC(C)C[C@H]1C(=O)N2CCC[C@H]2[C@]2(O)O[C@](NC(=O)[C@@H]3C=C4c5cccc6[nH]c(Br)c(c56)C[C@H]4N(C)C3)(C(C)C)C(=O)N12` [BROMOCRIPTINE], the concentration for half-maximal inhibition (IC50) (usually the concentration that inhibits the measured activity by half) in assay [1] (read-out: IC50) was 22 nM; in assay [2], “Not Active”; in assay [3] (read-out: IC50), 6.96 nM; in assay [4], “Not Active”; in assay [5], “Not Active”; against Nitric oxide synthase 1, “Not Active”. In addition, the figures for the Ki in assay [1] (read-out: Ki), in assay [3] (read-out: Ki) and in assay [4] were 10 nM, 2.82 nM and “Not Active”, respectively.

In the case of `CS(=O)(=O)OCCCCOS(C)(=O)=O` [BUSULFAN], the IC50 entry (in assay [1] (hela); in assay [2]; in assay [3]; in assay [4]; in assay [5]; against Nitric oxide synthase 1) was “Not Active” throughout. The Ki result in assay [4] is “Not Active”.

Consider `O=C(/C=C/c1ccc(O)c(O)c1)OCCc1ccccc1` [CAFFEIC ACID PHENETHYL ESTER], for which the IC50 entry (in assay [1] (hela); in assay [2]; in assay [3]; in assay [4]; in assay [5]; against Nitric oxide synthase 1) was “Not Active” each time. Further, the inhibition constant Ki result in assay [4] is “Not Active”.

As to `Cc1cnc(C(=O)NCCc2ccc(S(=O)(=O)NC(=O)NC3CCCCC3)cc2)cn1` [GLIPIZIDE], the IC50 result (in assay [1] (hela); in assay [3]; in assay [4]; in assay [5]; on Nitric oxide synthase 1) was “Not Active” each time. Also, the Ki entry in assay [4] is “Not Active”.

On to `N=C(N)N/N=C/c1c(Cl)cccc1Cl` [GUANABENZ], for which the IC50 entry (in assay [1] (hela); in assay [2]; in assay [4]; in assay [5]; against Nitric oxide synthase 1) was “Not Active” in each case. Further, the Ki entry in assay [4] is on record as “Not Active”.

The values above are taken from ChEMBL document CHEMBL1909046, “DrugMatrix in vitro pharmacology data”.
